According to article PMC8348110, “A Novel Peptide Derived from the Transmembrane Domain of Romo1 Is a Promising Candidate for Sepsis Treatment and Multidrug-Resistant Bacteria” (International Journal of Molecular Sciences, 2021):
In brackets after ≈: the same amount, converted by molar mass. Residues, ends and D or L forms follow the SMILES beside them.

Tests used:
[1] = tested on: human erythrocytes; assay: Hemolysis assay; format: cell-based; conditions: 2% erythrocytes in PBS, 1 h 37 °C, absorbance 550 nm; up to / at 256 µg/mL
Description: For the hemolytic assay, mouse and human whole blood was diluted with PBS (pH 7.4) and centrifuged for 10 min at 500× g. After removing the supernatant and rinsing the pellet three times with PBS, we resuspended the erythrocytes in PBS at 2% volume. The blood solution was added to the solution of peptides with two-fold serial dilution on a 96-well plate. After incubation for an hour at 37 °C, the plate was centrifuged at 2500× g for 10 min, and the absorbance of the supernatant was measured at 550 nm. The PBS-treated sample was the negative control, and the 0.1% Triton X-100–treated sample was the positive control. To measure white blood cell toxicity, mouse and human PBMCs were freshly isolated as previously described, and 70% ethanol (positive control) or AMPR-22 was administered using two-fold diluted concentrations (0 to 256 μg/mL) for 30 min. To measure cell death, a LIVE/DEAD® fixable green dead cell stain kit (Thermo Fisher Scientific, Waltham, MS, USA) was used following the manufacturer′s instructions, and flow cytometry was performed using a FACS Canto II (BD Biosciences, CA, USA). The toxicity of AMPR-22 was compared with negative (PBS-treated) and positive controls, and the data were analyzed using FlowJo software (Tree Star, OR, USA).

[2] = tested on: Pseudomonas aeruginosa ATCC 27853; format: cell-based; conditions: ATCC 27853, 1 h
Description: (§1) The minimum bactericidal concentration (MBC) was determined as previously described with minor modifications. Briefly, bacteria were cultured in the mid-log phase and diluted to 5 × 10^5 colony-forming unit (CFU)/mL in 10 mM sodium phosphate buffer (pH 7.4) with a 1% volume of TS broth. They were incubated for 1 h with various peptides which were two-fold diluted serially from 64 μg/mL to 0 μg/mL concentrations in a 96-well plate. The samples were inoculated TS agar plate and incubated overnight at 37 °C. The value of MBC was determined at the lowest concentrations at which no colonies were identified.
(§2) We used the CFU counting method to measure antibacterial activity, with all bacteria cultured to the mid-log phase in an appropriate broth medium. Bacterial CFUs were counted after overnight culture at 37 °C on TS or LB agar plates. The MBC value and antibacterial activity in blood components were determined as previously described. Mouse and human whole blood were collected and diluted with PBS (pH 7.4) to measure the ex vivo antibacterial activity of AMPR-22. For that test, AMPR-22 (10 μg) was added to each whole blood solution and incubated at 37 °C with shaking at 200 rpm. At each time point, it was incubated with bacteria (1 × 10^3 CFU) for 30 min. Each sample was inoculated on an LB agar plate, and CFU counting was performed. To measure the in vivo activity of AMPR-22, 1 × 10^8 CFU of bacteria were injected into BALB/c mice, and an hour later, 10 mg/kg of the test peptides were injected. Blood samples were collected by tail cut, serially diluted with PBS (pH 7.4), and inoculated on LB-agar plates, followed by CFU counting. To estimate the functional half-life of AMPR-22, 40 mg/kg of each tested peptide were injected into mice. Whole blood sampling was performed by cardiac puncture, and the plasma was isolated by centrifugation (2000× g, 15 min). The isolated plasma was incubated with bacteria (1 × 10^3 CFU) for an hour, and then the CFU counting method was performed.

[3] = tested on: Staphylococcus aureus ATCC 29213; format: cell-based; conditions: ATCC 29213, 1 h, pH 7.4
Description: as §1, §2

[4] = tested on: Methicillin-resistant S. aureus (MRSA) ATCC 33591; format: cell-based, Staphylococcus aureus; conditions: ATCC 33591, 1 h
Description: as §1, §2

[5] = tested on: Carbapenem-resistant P. aeruginosa (CRPA), clinical isolate; format: cell-based, Pseudomonas aeruginosa; conditions: 1 h
Source text: Acinetobacter baumannii (ATCC 19606), B. subtilis (ATCC 6633), E. aerogenes (ATCC 13048), E. coli (ATCC 25922), E. faecalis (ATCC 19433), E. faecium (ATCC 19434), K. pneumoniae (ATCC 13883), P. aeruginosa (ATCC 27853), S. aureus (ATCC 29213), S. sindenensis (ATCC 23963), and MRSA (ATCC 33591) were purchased from the American Type Culture Collection (ATCC; Gaithersburg, MD, USA). Streptococcus pneumoniae (NCCP 14585), vancomycin-resistant E. faecium (NCCP 11522), and vancomycin-resistant S. aureus (NCCP 15872) were purchased from the National Culture Collection for Pathogens (NCCP; Cheongju, Korea). The isolation and use of carbapenem-resistant bacterial strains from a patient were approved (2015AN0129) by the Institutional Review Board (IRB) of Korea University Hospital. CRPA, CRKP, and CRAB were clinically isolated in Korea University Hospital (Seoul, Korea). CRPA was confirmed to be resistant to piperacillin, piperacillin-tazobactam, ceftazidime, imipenem, meropenem, gentamicin, amikacin, and ciprofloxacin. CRAB was confirmed to be resistant to piperacillin, piperacillin-tazobactam, cefepime, ceftazidime, imipenem, meropenem, gentamicin, amikacin, and ciprofloxacin. CRKP was confirmed to be resistant to piperacillin-tazobactam, cefepime, ceftazidime, imipenem, gentamicin, and ciprofloxacin. All strains were stored at –80 °C in 50% glycerol and 50% Luria-Bertani (LB) or tryptic soy (TS) broth, grown on LB or TS plates, and aerated at 37 °C.
as §1, §2

CC[C@H](C)[C@H](NC(=O)CNC(=O)[C@H](CCSC)NC(=O)CNC(=O)[C@@H](NC(=O)[C@H](C)NC(=O)[C@H](CCSC)NC(=O)[C@H](Cc1ccccc1)NC(=O)[C@@H](NC(=O)CNC(=O)[C@H](Cc1ccccc1)NC(=O)[C@@H](NC(=O)CNC(=O)CNC(=O)[C@H](CO)NC(=O)[C@H](CCC(N)=O)NC(=O)[C@H](CCSC)NC(=O)[C@H](CCSC)NC(=O)[C@@H](NC(=O)[C@@H](N)CCCCN)[C@@H](C)O)[C@@H](C)O)[C@@H](C)O)[C@@H](C)CC)C(=O)N[C@@H](CCCNC(=N)N)C(=O)O [AMPR-11] (H-KTMMQSGGTFGTFMAIGMGIR-OH)
Hemolytic activity against human erythrocytes [1]: low hemolytic activity

CC[C@H](C)[C@H](NC(=O)[C@H](C)NC(=O)[C@H](CCSC)NC(=O)[C@H](Cc1ccccc1)NC(=O)[C@@H](NC(=O)CNC(=O)[C@H](Cc1ccccc1)NC(=O)[C@H](CCCCN)NC(=O)CNC(=O)CNC(=O)[C@H](CCCCN)NC(=O)[C@H](CCCCN)NC(=O)[C@H](CCSC)NC(=O)[C@H](CCSC)NC(=O)[C@H](CCCCN)NC(=O)[C@@H](N)CCCCN)[C@@H](C)O)C(=O)NCC(=O)N[C@@H](CCSC)C(=O)N[C@H](C(=O)N[C@@H](CCCNC(=N)N)C(=O)O)[C@@H](C)CC [d76G] (H-KKMMKKGGKFGTFMAIGMIR-OH)
MBC Value, P. aeruginosa [2]: 4 µg/mL (≈ 1.77 µM) | MBC Value, S. aureus [3]: 4 µg/mL (≈ 1.77 µM) | MBC Value, MRSA [4]: 4 µg/mL (≈ 1.77 µM) | MBC Value, CRPA [5]: 4 µg/mL (≈ 1.77 µM)

CC[C@H](C)[C@H](NC(=O)[C@H](C)NC(=O)[C@H](CCSC)NC(=O)[C@H](Cc1ccccc1)NC(=O)[C@@H](NC(=O)CNC(=O)[C@H](Cc1ccccc1)NC(=O)[C@H](CCCCN)NC(=O)CNC(=O)CNC(=O)[C@H](CCCCN)NC(=O)[C@H](CCCCN)NC(=O)[C@H](CCSC)NC(=O)[C@H](CCSC)NC(=O)[C@H](CCCCN)NC(=O)[C@@H](N)CCCCN)[C@@H](C)O)C(=O)NCC(=O)N[C@@H](CCSC)C(=O)NCC(=O)N[C@@H](CCCNC(=N)N)C(=O)O [d77I] (H-KKMMKKGGKFGTFMAIGMGR-OH)
MBC Value, P. aeruginosa [2]: 4 µg/mL (≈ 1.81 µM) | MBC Value, S. aureus [3]: 8 µg/mL (≈ 3.63 µM) | MBC Value, MRSA [4]: 4 µg/mL (≈ 1.81 µM) | MBC Value, CRPA [5]: 8 µg/mL (≈ 3.63 µM)

CC[C@H](C)[C@H](NC(=O)CNC(=O)[C@H](CCSC)NC(=O)CNC(=O)[C@@H](NC(=O)[C@H](C)NC(=O)[C@H](CCSC)NC(=O)[C@H](Cc1ccccc1)NC(=O)[C@@H](NC(=O)CNC(=O)[C@H](Cc1ccccc1)NC(=O)[C@H](CCCCN)NC(=O)CNC(=O)CNC(=O)[C@H](CCCCN)NC(=O)[C@H](CCCCN)NC(=O)[C@H](CCSC)NC(=O)[C@H](CCSC)NC(=O)[C@H](CCCCN)NC(=O)[C@@H](N)CCCCN)[C@@H](C)O)[C@@H](C)CC)C(=O)O [d78R] (H-KKMMKKGGKFGTFMAIGMGI-OH)
MBC Value, P. aeruginosa [2]: 4 µg/mL (≈ 1.85 µM) | MBC Value, S. aureus [3]: 16 µg/mL (≈ 7.4 µM) | MBC Value, MRSA [4]: 4 µg/mL (≈ 1.85 µM) | MBC Value, CRPA [5]: 16 µg/mL (≈ 7.4 µM)
